Test results as given in patent US6506772B1, “Substituted [1,2,4]triazolo[1,5a]pyridine derivatives with activity as adenosine receptor ligands” (Hoffmann-La Roche Inc., priority 2000, dated 2003).

Columns and labels:
[1] = target: T1, human adenosine A2A receptor (Homo sapiens, UniProt P29274); experiment: Human adenosine A2A receptor [3H]-SCH-58261 binding assay; settings: for Ki: affinity to human adenosine A2A receptor, read-out: Ki HA2A; for selectivity (A1/A2a): calculated ratio of the affinity to the HA1 receptor to the HA2a receptor
T1 construct: expressed in transfected cells; host or cells: CHO cells, Semliki Forest virus expression system; membrane preparation
T1 sequence (P29274 whole entry): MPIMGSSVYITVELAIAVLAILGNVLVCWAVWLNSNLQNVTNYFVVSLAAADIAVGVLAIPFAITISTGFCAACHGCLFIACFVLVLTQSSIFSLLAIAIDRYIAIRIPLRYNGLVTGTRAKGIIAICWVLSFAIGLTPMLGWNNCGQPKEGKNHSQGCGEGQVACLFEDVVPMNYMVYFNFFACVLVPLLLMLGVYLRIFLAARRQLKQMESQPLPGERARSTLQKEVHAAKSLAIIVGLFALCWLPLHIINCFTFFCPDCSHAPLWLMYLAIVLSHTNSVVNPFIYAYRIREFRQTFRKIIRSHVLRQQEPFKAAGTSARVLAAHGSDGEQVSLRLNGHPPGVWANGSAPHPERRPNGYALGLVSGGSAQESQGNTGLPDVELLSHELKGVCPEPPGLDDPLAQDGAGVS

HA1 adenosine receptor = target: T2, HA1 adenosine receptor (Homo sapiens, UniProt P30542); experiment: Human adenosine A1 receptor affinity (Ki hA1); format: binding; settings: affinity to human adenosine A1 receptor
T2 sequence (P30542 1-326): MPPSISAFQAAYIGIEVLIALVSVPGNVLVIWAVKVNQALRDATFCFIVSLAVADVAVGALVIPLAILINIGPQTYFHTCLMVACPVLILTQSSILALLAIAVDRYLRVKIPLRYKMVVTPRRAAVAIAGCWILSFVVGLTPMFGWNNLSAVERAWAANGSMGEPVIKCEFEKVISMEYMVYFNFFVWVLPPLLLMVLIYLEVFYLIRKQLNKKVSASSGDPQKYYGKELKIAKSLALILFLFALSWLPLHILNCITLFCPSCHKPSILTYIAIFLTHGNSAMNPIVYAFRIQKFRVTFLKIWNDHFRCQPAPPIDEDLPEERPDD

With `Nc1cc(C(=O)NCc2ccccc2Br)cc2nc(-c3ccccc3O)nn12` [Example 160, 5-Amino-2-(2-hydroxy-phenyl)-[1,2,4]triazolo[1,5-a]pyridine-7-carboxylic acid 2-bromo-benzylamide] the Ki [1] was 126 nM, the “selectivity (A1/A2a)” value [1] was 1.1 and the Ki (HA1 adenosine receptor) was 139 nM.

For `CCCCNC(=O)c1cc(N)n2nc(-c3cccs3)nc2c1` [Example 161, 5-Amino-2-thiophen-2-yl-[1,2,4]triazolo[1,5-a]pyridine-7-carboxylic acid butylamide], the Ki [1] was 28 nM, the “selectivity (A1/A2a)” value [1] was 5.7 and the Ki (HA1 adenosine receptor) was 161 nM.

For `Nc1cc(C(=O)NC2CCCCC2)cc2nc(-c3cccs3)nn12` [Example 162, 5-Amino-2-thiophen-2-yl-[1,2,4]triazolo[1,5-a]pyridine-7-carboxylic acid cyclohexylamide], the Ki [1] was 61.4 nM, the “selectivity (A1/A2a)” value [1] was 4.9 and the Ki (HA1 adenosine receptor) was 301 nM.

With `Nc1cc(C(=O)NCc2ccccc2Cl)cc2nc(-c3cccs3)nn12` [Example 163, 5-Amino-2-thiophen-2-yl-[1,2,4]triazolo[1,5-a]pyridine-7-carboxylic acid 2-chloro-benzylamide] the Ki [1] was 31.1 nM, the “selectivity (A1/A2a)” value [1] was 4.0 and the Ki (HA1 adenosine receptor) was 125 nM.

For `Nc1cc(C(=O)NCc2ccccc2Br)cc2nc(-c3cccs3)nn12` [Example 164, 5-Amino-2-thiophen-2-yl-[1,2,4]triazolo[1,5-a]pyridine-7-carboxylic acid 2-bromo-benzylamide], the Ki [1] was 25.5 nM, the “selectivity (A1/A2a)” value [1] was 4.4 and the Ki (HA1 adenosine receptor) was 111 nM.

`Nc1cc(C(=O)NC2CCCCC2)cc2nc(-c3ccc(Br)o3)nn12` [Example 165, 5-Amino-2-(5-bromo-furan-2-yl)-[1,2,4]triazolo[1,5-a]pyridine-7-carboxylic acid cyclohexylamide] was tested, and the Ki [1] was 88.8 nM, the “selectivity (A1/A2a)” value [1] was 8.7 and the Ki (HA1 adenosine receptor) was 770 nM.

For `Nc1cc(C(=O)NCc2ccccc2)cc2nc(-c3ccc(Br)o3)nn12` [Example 166, 5-Amino-2-(5-bromo-furan-2-yl)-[1,2,4]triazolo[1,5-a]pyridine-7-carboxylic acid benzylamide], the Ki [1] was 39.7 nM, the “selectivity (A1/A2a)” value [1] was 5.1 and the Ki (HA1 adenosine receptor) was 201 nM.

In the case of `Nc1cc(C(=O)NCc2ccccc2Br)cc2nc(-c3ccc(Br)o3)nn12` [Example 167], the Ki [1] is reported as 42.7 nM, the “selectivity (A1/A2a)” value [1] is reported as 4.6 and the Ki (HA1 adenosine receptor) is reported as 196 nM.

In the case of `CCCCNC(=O)c1cc(N)n2nc(-c3cc(Br)co3)nc2c1` [Example 168, 5-Amino-2-(4-bromo-furan-2-yl)-[1,2,4]triazolo[1,5-a]pyridine-7-carboxylic acid butylamide], the Ki [1] is reported as 18.4 nM, the “selectivity (A1/A2a)” value [1] is reported as 2.6 and the Ki (HA1 adenosine receptor) is reported as 47.2 nM.

`CCN(CC)C(=O)c1cc(N)n2nc(-c3cc(Br)co3)nc2c1` [Example 169, 5-Amino-2-(4-bromo-furan-2-yl)-[1,2,4]triazolo[1,5-a]pyridine-7-carboxylic acid diethylamide] was tested, and the Ki [1] was 119 nM, the “selectivity (A1/A2a)” value [1] was 3.4 and the Ki (HA1 adenosine receptor) was 407 nM.

In the case of `Nc1cc(C(=O)N2CCCC2)cc2nc(-c3cc(Br)co3)nn12` [Example 170, [5-Amino-2-(4-bromo-furan-2-yl)-[1,2,4]triazolo[1,5-a]pyridin-7-yl]-pyrrolidin-1-yl-methanone], the Ki [1] is reported as 33.8 nM, the “selectivity (A1/A2a)” value [1] is reported as 4.5 and the Ki (HA1 adenosine receptor) is reported as 152 nM.

In the case of `Nc1cc(C(=O)N2CCCCC2)cc2nc(-c3cc(Br)co3)nn12` [Example 171, [5-Amino-2-(4-bromo-furan-2-yl)-[1,2,4]triazolo[1,5-a]pyridin-7-yl]-piperidin-1-yl-methanone], the Ki [1] is reported as 64.9 nM, the “selectivity (A1/A2a)” value [1] is reported as 4.3 and the Ki (HA1 adenosine receptor) is reported as 276 nM.

For `Nc1cc(C(=O)NCc2ccccc2)cc2nc(-c3cc(Br)co3)nn12` [Example 172, 5-Amino-2-(4-bromo-furan-2-yl)-[1,2,4]triazolo[1,5-a]pyridine-7-carboxylic acid benzylamide], the Ki [1] was 29.7 nM, the “selectivity (A1/A2a)” value [1] was 0.8 and the Ki (HA1 adenosine receptor) was 24.7 nM.

`CC(C)N(Cc1ccccc1)C(=O)c1cc(N)n2nc(-c3cc(Br)co3)nc2c1` [Example 173, 5-Amino-2-(4-bromo-furan-2-yl)-[1,2,4]triazolo[1,5-a]pyridine-7-carboxylic acid benzyl-isopropyl-amide] was tested, and the Ki [1] was 44.4 nM, the “selectivity (A1/A2a)” value [1] was 1.7 and the Ki (HA1 adenosine receptor) was 73.6 nM.

In the case of `Nc1cc(C(=O)NCc2ccccc2Cl)cc2nc(-c3cc(Br)co3)nn12` [Example 174, 5-Amino-2-(4-bromo-furan-2-yl)-[1,2,4]triazolo[1,5-a]pyridine-7-carboxylic acid 2-chloro-benzylamide], the Ki [1] is reported as 11.1 nM, the “selectivity (A1/A2a)” value [1] is reported as 1.6 and the Ki (HA1 adenosine receptor) is reported as 17.5 nM.

With `Nc1cc(C(=O)NCc2ccccc2Br)cc2nc(-c3cc(Br)co3)nn12` [Example 175, 5-Amino-2-(4-bromo-furan-2-yl)-[1,2,4]triazolo[1,5-a]pyridine-7-carboxylic acid 2-bromo-benzylamide] the Ki [1] was 14.6 nM, the “selectivity (A1/A2a)” value [1] was 1.5 and the Ki (HA1 adenosine receptor) was 22.6 nM.

In the case of `COc1ccc(CNC(=O)c2cc(N)n3nc(-c4cc(Br)co4)nc3c2)cc1` [Example 176, 5-Amino-2-(4-bromo-furan-2-yl)-[1,2,4]triazolo[1,5-a]pyridine-7-carboxylic acid 4-methoxy-benzylamide], the Ki [1] is reported as 329 nM, the “selectivity (A1/A2a)” value [1] is reported as 0.5 and the Ki (HA1 adenosine receptor) is reported as 151 nM.

For `COc1cc(CNC(=O)c2cc(N)n3nc(-c4cc(Br)co4)nc3c2)cc(OC)c1OC` [Example 177, 5-Amino-2-(4-bromo-furan-2-yl)-[1,2,4]triazolo[1,5-a]pyridine-7-carboxylic acid 3,4,5-trimethoxy-benzylamide], the Ki [1] was 197 nM, the “selectivity (A1/A2a)” value [1] was 1.3 and the Ki (HA1 adenosine receptor) was 266 nM.

For `CCCCNC(=O)c1cc(N)n2nc(-c3cccn3C)nc2c1` [Example 178, 5-Amino-2-(1-methyl-1H-pyrrol-2-yl)-[1,2,4]triazolo[1,5-a]pyridine-7-carboxylic acid butylamide], the Ki [1] was 65.2 nM, the “selectivity (A1/A2a)” value [1] was 6.9 and the Ki (HA1 adenosine receptor) was 450 nM.

For `Cn1cccc1-c1nc2cc(C(=O)NC3CCCCC3)cc(N)n2n1` [Example 179, 5-Amino-2-(1-methyl-1H-pyrrol-2-yl)-[1,2,4]triazolo[1,5-a]pyridine-7-carboxylic acid cyclohexylamide], the Ki [1] was 144 nM, the “selectivity (A1/A2a)” value [1] was 5.4 and the Ki (HA1 adenosine receptor) was 779 nM.

In the case of `Cn1cccc1-c1nc2cc(C(=O)NCc3ccccc3)cc(N)n2n1` [Example 180, 5-Amino-2-(1-methyl-1H-pyrrol-2-yl)-[1,2,4]triazolo[1,5-a]pyridine-7-carboxylic acid benzylamide], the Ki [1] is reported as 112 nM, the “selectivity (A1/A2a)” value [1] is reported as 2.7 and the Ki (HA1 adenosine receptor) is reported as 307 nM.

With `Cn1cccc1-c1nc2cc(C(=O)NCc3ccccc3Cl)cc(N)n2n1` [Example 181, 5-Amino-2-(1-methyl-1H-pyrrol-2-yl)-[1,2,4]triazolo[1,5-a]pyridine-7-carboxylic acid 2-chloro-benzylamide] the Ki [1] was 54.3 nM, the “selectivity (A1/A2a)” value [1] was 4.7 and the Ki (HA1 adenosine receptor) was 256 nM.

In the case of `Cn1cccc1-c1nc2cc(C(=O)NCc3ccccc3Br)cc(N)n2n1` [Example 182, 5-Amino-2-(1-methyl-1H-pyrrol-2-yl)-[1,2,4]triazolo[1,5-a]pyridine-7-carboxylic acid 2-bromo-benzylamide], the Ki [1] is reported as 54.6 nM, the “selectivity (A1/A2a)” value [1] is reported as 4.9 and the Ki (HA1 adenosine receptor) is reported as 270 nM.

With `COc1ccc(CNC(=O)c2cc(N)n3nc(-c4ccco4)nc3c2)cc1` [Example 183, 5-Amino-2-furan-2-yl-[1,2,4]triazolo[1,5-a]pyridine-7-carboxylic acid 4-methoxy-benzylamide] the Ki [1] was 33.7 nM, the “selectivity (A1/A2a)” value [1] was 9.0 and the Ki (HA1 adenosine receptor) was 302 nM.
